Laboratory results published in patent US10975056B2 (GlaxoSmithKline Intellectual Property Development Limited, priority 2016, dated 2021).
Counter-ions that a name gives are not always drawn. Like-named read-outs stand apart in the source and are kept apart here.

Assays:
DNMT1 = DNMT1 (Homo sapiens, UniProt P26358); assay: DNMT1 biochemical activity, breaklight assay and/or SPA assay
[1] = test system: erythroid progenitor cells (EPCs); assay: Fetal hemoglobin (HbF) ELISA in day 7 erythroid progenitor cells; format: cell-based, human; settings: for EC50: Homo sapiens, Erythroid progenitor cell, read-out: EPC ELISA (pEC50 category) (converted);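 as to EPC ELISA (pEC50 category): for fetal hemoglobin induction normalized to vehicle-treated cells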
How it was run: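 Day 7 EPCs from human bone marrow CD34+ cells were plated at 1,000 cells/well in media with 3 U/mL rhEPO. They were exposed to a 22-point dilution ([…]) for 5 days at 37 °C. Lysate HbF was measured by sandwich ELISA (OD450) and normalized to DMSO control wells.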

[2] = binned activity in either the breaklight or the SPA assay, read-out: DNMT1 BioChemical (pIC50 category) (converted)
[3] = binned activity in either the breaklight or the SPA assay
[4] = breaklight assay and/or SPA assay, repeated experimental runs, read-out: average pIC50 against DNMT1 (converted)

DNMT1, sequence (P26358 whole entry, looked up): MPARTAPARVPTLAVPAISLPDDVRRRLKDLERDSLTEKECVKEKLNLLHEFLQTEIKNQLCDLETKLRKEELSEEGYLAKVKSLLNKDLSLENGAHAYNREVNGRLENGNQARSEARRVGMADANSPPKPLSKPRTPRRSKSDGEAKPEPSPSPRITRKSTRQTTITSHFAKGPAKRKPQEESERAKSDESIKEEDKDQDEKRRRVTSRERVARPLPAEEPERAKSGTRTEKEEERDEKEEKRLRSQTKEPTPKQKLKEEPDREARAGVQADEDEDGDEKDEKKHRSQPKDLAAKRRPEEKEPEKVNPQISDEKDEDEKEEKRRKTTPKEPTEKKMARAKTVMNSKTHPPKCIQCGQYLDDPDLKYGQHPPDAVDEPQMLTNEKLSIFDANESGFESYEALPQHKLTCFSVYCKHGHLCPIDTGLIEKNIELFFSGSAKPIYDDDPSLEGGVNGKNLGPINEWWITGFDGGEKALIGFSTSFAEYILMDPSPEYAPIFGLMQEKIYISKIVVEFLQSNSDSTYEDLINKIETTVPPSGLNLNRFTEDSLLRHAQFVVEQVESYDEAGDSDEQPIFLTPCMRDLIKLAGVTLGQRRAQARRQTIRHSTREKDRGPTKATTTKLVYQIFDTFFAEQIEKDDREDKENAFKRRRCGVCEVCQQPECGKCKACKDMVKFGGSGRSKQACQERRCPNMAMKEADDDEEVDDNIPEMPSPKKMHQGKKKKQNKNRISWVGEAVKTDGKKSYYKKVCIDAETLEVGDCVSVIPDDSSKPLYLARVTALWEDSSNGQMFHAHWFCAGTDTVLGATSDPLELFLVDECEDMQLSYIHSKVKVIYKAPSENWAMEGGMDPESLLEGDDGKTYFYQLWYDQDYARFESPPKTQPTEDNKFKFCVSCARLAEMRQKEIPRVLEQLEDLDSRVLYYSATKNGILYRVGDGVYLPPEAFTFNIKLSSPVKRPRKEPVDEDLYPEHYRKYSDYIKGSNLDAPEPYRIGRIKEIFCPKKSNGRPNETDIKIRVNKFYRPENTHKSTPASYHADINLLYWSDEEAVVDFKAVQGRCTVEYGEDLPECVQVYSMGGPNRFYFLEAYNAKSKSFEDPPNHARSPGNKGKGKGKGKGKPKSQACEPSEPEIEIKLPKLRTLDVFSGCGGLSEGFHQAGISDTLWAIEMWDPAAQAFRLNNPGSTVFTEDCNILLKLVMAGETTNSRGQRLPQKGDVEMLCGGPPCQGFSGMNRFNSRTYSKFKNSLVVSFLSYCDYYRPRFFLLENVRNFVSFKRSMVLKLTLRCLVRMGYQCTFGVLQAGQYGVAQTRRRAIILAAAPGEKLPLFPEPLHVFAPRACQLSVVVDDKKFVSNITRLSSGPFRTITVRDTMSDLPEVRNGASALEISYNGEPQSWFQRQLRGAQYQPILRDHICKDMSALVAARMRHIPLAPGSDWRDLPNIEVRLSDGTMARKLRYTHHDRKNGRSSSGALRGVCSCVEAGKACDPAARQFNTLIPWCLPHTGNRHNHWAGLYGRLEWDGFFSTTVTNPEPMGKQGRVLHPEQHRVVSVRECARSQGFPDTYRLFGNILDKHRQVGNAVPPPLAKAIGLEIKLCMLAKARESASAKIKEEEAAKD

Row | IC50 (DNMT1; [2]) [nM] | EC50 ([1]; HbF ELISA, day 7 EPCs, 5 days) [nM] | DNMT1 BioChemical (pIC50 category) (DNMT1; [3]) | Compound | other results
1 | 316 to 1000 | 1000 to 31600 | – | CCc1c(C#N)c(SC(C(N)=O)c2ccccc2)nc(N(C)CCn2cnnc2)c1C#N (centres unmarked) [Example 352, 2-((6-((2-(4H-1,2,4-Triazol-4-yl)ethyl)(methyl)amino)-3,5-dicyano-4-ethylpyridin-2-yl)thio)-2-phenylacetamide] | –
2 | – | 1000 to 31600 | D (Category D: ≥6.5) | CCc1c(C#N)c(SC(C(N)=O)c2ccccc2)nc(N2CC[C@H](N(C)C)C2)c1C#N (stereo partly drawn) [Example 539, 2-((3,5-dicyano-6-((S)-3-(dimethylamino)pyrrolidin-1-yl)-4-ethylpyridin-2-yl)thio)-2-phenylacetamide] | –
3 | – | 1000 to 31600 | D (Category D: ≥6.5) | N#Cc1c(SC(C(N)=O)c2ccccc2)nc(N2CCC(O)(CN)CC2)c(C#N)c1C1CC1 (centres unmarked) [Example 23] | –
4 | 316 to 1000 | > 31600 | – | CCc1c(C#N)c(SCc2ccc(-c3cccnc3)cc2)nc(N2CCC(N3CCCC3)CC2)c1C#N [Example 337, 4-Ethyl-2-((4-(pyridin-3-yl)benzyl)thio)-6-(4-(pyrrolidin-1-yl)piperidin-1-yl)pyridine-3,5-dicarbonitrile] | IC50 (DNMT1; [4]): 3160 nM
5 | – | < 316 | D (Category D: ≥6.5) | CCc1c(C#N)c(SC(C(N)=O)c2ccccc2)nc(N2CC(CN)C2)c1C#N (centres unmarked) [Example 671, 2-((6-(3-(aminomethyl)azetidin-1-yl)-3,5-dicyano-4-ethylpyridin-2-yl)thio)-2-phenylacetamide] | –
6 | – | < 316 | D (Category D: ≥6.5) | CCc1c(C#N)c(SC(C(N)=O)c2ccccc2)nc(N2CCC(NCC(C)(C)C)C(F)C2)c1C#N (centres unmarked) [Example 409, 2-((3,5-dicyano-4-ethyl-6-(3-fluoro-4-A(neopentylamino)piperidin-1-yl)pyridin-2-yl)thio)-2-phenylacetamide] | average pIC50 against DNMT1 (DNMT1; breaklight assay and/or SPA assay, repeated experimental runs): > 6.5; IC50 (DNMT1; [4]): 158 nM
7 | 316 to 1000 | 316 to 1000 | – | CCc1c(C#N)c(SCc2ccc(C(N)=O)cc2)nc(N2CCCN(C)CC2)c1C#N [Example 70, 4-(((3,5-Dicyano-4-ethyl-6-(4-methyl-1,4-diazepan-1-yl)pyridin-2-yl)thio)methyl)benzamide] | IC50 (DNMT1; [4]): 316 to 1000 nM
8 | – | 316 to 1000 | D (Category D: ≥6.5) | CCc1c(C#N)c(SC(C(N)=O)c2ccccc2)nc(N(C)CC(=O)N(CCO)CCO)c1C#N (centres unmarked) [Example 668, 2-((6-((2-amino-2-oxo-1-phenylethyl)thio)-3,5-dicyano-4-ethylpyridin-2-yl)(methyl)amino)-N,N-bis(2-hydroxyethyl)acetamide] | –
9 | – | < 316 | D (Category D: ≥6.5) | CCc1c(C#N)c(SC(C(N)=O)c2ccccc2)nc(N2CCO[C@H](CN(CC)CC)C2)c1C#N (stereo partly drawn) [Example 578, 2-((3,5-dicyano-6-((R)-2-((diethylamino)methyl)morpholino)-4-ethylpyridin-2-yl)thio)-2-phenylacetamide] | –
10 | 1000 to 31600 | 1000 to 31600 | – | CCc1c(C#N)c(SC(C(N)=O)C2CCNCC2)nc(N(C)C)c1C#N (centres unmarked) [Example 157, 2-((3,5-dicyano-6-(dimethylamino)-4-ethylpyridin-2-yl)thio)-2-(piperidin-4-yl)acetamide] | –
11 | – | < 316 | D (Category D: ≥6.5) | CCc1c(C#N)c(SC(C(N)=O)c2ccccc2)nc(N(C)CCN(CC)CC)c1C#N (centres unmarked) [Example 515, 2-((3,5-dicyano-6-((2-(diethylamino)ethyl)(methyl)amino)-4-ethylpyridin-2-yl)thio)-2-phenylacetamide] | –
12 | – | > 31600 | D (Category D: ≥6.5) | CCc1c(C#N)c(SCc2ccc(N3CCCCS3(=O)=O)cc2)nc(N2CCC(N)CC2)c1C#N [Example 601, 2-(4-aminopiperidin-1-yl)-6-((4-(1,1-dioxido-1,2-thiazinan-2-yl)benzyl)thio)-4-ethylpyridine-3,5-dicarbonitrile] | –
13 | 316 to 1000 | 1000 to 31600 | – | CCc1c(C#N)c(SC(C(N)=O)c2ccccc2)nc(N(C)CC(C)(O)C(N)=O)c1C#N (centres unmarked) [Example 261, 3-((6-((2-Amino-2-oxo-1-phenylethyl)thio)-3,5-dicyano-4-ethylpyridin-2-yl)(methyl)amino)-2-hydroxy-2-methylpropanamide] | –
14 | – | < 316 | D (Category D: ≥6.5) | CCc1c(C#N)c(SC(C(N)=O)c2ccccc2)nc(N(C)CCN(C)CC)c1C#N (centres unmarked) [Example 483, 2-(3,5-dicyano-4-ethyl-6-((2-(ethyl(methyl)amino)ethyl)(methyl)amino)pyridin-2-ylthio)-2-phenylacetamide] | –
15 | – | < 316 | D (Category D: ≥6.5) | CCc1c(C#N)c(SC(C(N)=O)c2ccccc2)nc(N2CCC(N(C)C3CCC3)CC2)c1C#N (centres unmarked) [Example 454, 2-((3,5-dicyano-6-(4-(cyclobutyl(methyl)amino)piperidin-1-yl)-4-ethylpyridin-2-yl)thio)-2-phenylacetamide] | –
16 | 316 to 1000 | 316 to 1000 | – | CCc1c(C#N)c(SC(C(N)=O)c2ccccc2)nc(N2CCN(C(C)(C)CO)CC2)c1C#N (centres unmarked) [Example 189] | –
17 | – | < 316 | D (Category D: ≥6.5) | CCc1c(C#N)c(SC(C(N)=O)c2ccccc2)nc(N(C)CCOCCN)c1C#N (centres unmarked) [Example 628, 2-((6-((2-(2-aminoethoxy)ethyl)(methyl)amino)-3,5-dicyano-4-ethylpyridin-2-yl)thio)-2-phenylacetamide] | –
18 | < 316 | 316 to 1000 | – | CCc1c(C#N)c(SC(C(N)=O)c2ccccc2)nc(N2CCCN(C)CC2)c1C#N (single isomer, unassigned; isomer 1) [Example 254, 2-((3,5-dicyano-4-ethyl-6-(4-methyl-1,4-diazepan-1-yl)pyridin-2-yl)thio)-2-phenylacetamide (Isomer 1)] | –
19 | – | < 316 | D (Category D: ≥6.5) | CCc1c(C#N)c(SC(C(N)=O)c2ccccc2)nc(N(C)CC(=O)N2CC[C@H](CO)C2)c1C#N (stereo partly drawn) [Example 648, 2-((3,5-dicyano-4-ethyl-6-((2-((S)-3-(hydroxymethyl)pyrrolidin-1-yl)-2-oxoethyl)(methyl)amino)pyridin-2-yl)thio)-2-phenylacetamide] | –
20 | 316 to 1000 | 1000 to 31600 | – | CC(=O)NCc1ccc(CSc2nc(N3CCCN(C)CC3)c(C#N)c(-c3ccco3)c2C#N)cc1 [Example 414] | –
21 | – | 316 to 1000 | D (Category D: ≥6.5) | C[C@H](N)C(=O)NC1CCN(c2nc(SC(C(N)=O)c3ccccc3)c(C#N)c(C3CC3)c2C#N)CC1 (stereo partly drawn) [Example 655, (2S)-2-amino-N-(1-(6-((2-amino-2-oxo-1-phenylethyl)thio)-3,5-dicyano-4-cyclopropylpyridin-2-yl)piperidin-4-yl)propanamide] | –
22 | – | 1000 to 31600 | D (Category D: ≥6.5) | CCc1c(C#N)c(SC(C(N)=O)c2ccccc2)nc(N2CCC(NCC(=O)O)CC2)c1C#N (centres unmarked) [Example 497, 2-((1-(6-((2-amino-2-oxo-1-phenylethyl)thio)-3,5-dicyano-4-ethylpyridin-2-yl)piperidin-4-yl)amino)acetic acid] | –
23 | 316 to 1000 | > 31600 | – | CCc1c(C#N)c(SCc2ccc(NC(=O)OC(C)(C)C)cc2)nc(N2CCCN(C)CC2)c1C#N [Example 296, tert-Butyl (4-(((3,5-dicyano-4-ethyl-6-(4-methyl-1,4-diazepan-1-yl)pyridin-2-yl)thio)methyl)phenyl)carbamate] | –
24 | 316 to 1000 | 316 to 1000 | – | CCc1c(C#N)c(SCc2ccc3[nH]cnc3c2)nc(N2CCCN(C)CC2)c1C#N [Example 390, 2-(((1H-Benzo[d]imidazol-5-yl)methyl)thio)-4-ethyl-6-(4-methyl-1,4-diazepan-1-yl)pyridine-3,5-dicarbonitrile] | –

Row | Compound | IC50 (DNMT1; [2]) [nM] | EC50 ([1]; HbF ELISA, day 7 EPCs, 5 days) [nM] | DNMT1 BioChemical (pIC50 category) (DNMT1; [3]) | other results
25 | CCc1c(C#N)c(S[C@@H](C(N)=O)c2ccccc2)nc(N2CCC(O)(CN)C2)c1C#N.Cl (stereo in doubt) [Example 423, (R)-2-((6-((R)-3-(aminomethyl)-3-hydroxypyrrolidin-1-yl)-3,5-dicyano-4-ethylpyridin-2-yl)thio)-2-phenylacetamide hydrochloride] | – | – | D (Category D: ≥6.5) | EPC ELISA (pEC50 category) ([1]; HbF ELISA, day 7 EPCs, 5 days): C (Category C: 6.0 ≤ x < 6.5)
26 | CCc1c(C#N)c(SC(C(N)=O)c2ccccc2)nc(N2CC(COC(=O)[C@@H](N)C(C)C)C2)c1C#N (some centres unmarked) [Example 277] | – | 1000 to 31600 | D (Category D: ≥6.5) | –
27 | CCc1c(C#N)c(SC(C(N)=O)c2ccccc2)nc(N2CCC3(CCNC3)CC2)c1C#N.O=C(O)C(F)(F)F (centres unmarked) [Example 17, 2-((3,5-dicyano-4-ethyl-6-(2,8-diazaspiro[4.5]decan-8-yl)pyridin-2-yl)thio)-2-phenylacetamide; 2,2,2-trifluoroacetic acid] | – | – | D (Category D: ≥6.5) | EC50 [1]: < 316 nM
28 | CCc1c(C#N)c(SC(C(N)=O)c2ccc(F)cc2)nc(N2CCC(N)CC2)c1C#N (centres unmarked) [Example 522, 2-((6-(4-aminopiperidin-1-yl)-3,5-dicyano-4-ethylpyridin-2-yl)thio)-2-(4-fluorophenyl)acetamide hydrochloride] | – | < 316 | D (Category D: ≥6.5) | –
29 | CN(CC(=O)NCCN)c1nc(SC(C(N)=O)c2ccccc2)c(C#N)c(C2CC2)c1C#N (centres unmarked) [Example 619, 2-((6-((2-amino-2-oxo-1-phenylethyl)thio)-3,5-dicyano-4-cyclopropylpyridin-2-yl)(methyl)amino)-N-(2-aminoethyl)acetamide hydrochloride] | – | 1000 to 31600 | D (Category D: ≥6.5) | –
